Data set [1] is described as follows: Flow-induced dispersion analysis (FIDA), critical micelle concentration. Format: physicochemical. From the text: Supplemental Figure S2. FIDA analysis of mPD5. (A) Molecular properties of mPD5.
(B) Taylorgrams for different concentrations of mPD5 using an uncoated capillary.
(C) Taylorgrams for different concentrations of mPD5 using a Poly-L-ornithine capillary.
(D) Taylorgrams for different concentrations of mPD5 using an HS-coated capillary.
(E) Graphical representation of mPD5 absorption using different coating strategies (B-D).
(F) Binding isotherm of mPD5 combining optimal coatings for different concentrations results in a CMC of 12 µM. […]
FIDA was carried out using a fluorescently labelled (AF488-NHS) mPD5 analogue, and fluorescence was recorded at 488 nm using mPD5-AF488 (25% labelling efficiency) as a tracer (100 nM), using the standard protocol recommended by the manufacturer, in short, mPD5 and mPD5-AF488 (25% labelling efficiency) was loaded to the FIDA1 instrument, and peptide sample was injected into the capillary followed by a buffer injection. The diffusion of the peptide could then be observed using 488 nm fluorescence, and the hydrodynamic radius was calculated using the FIDA software 2.0 using a single Gaussian distribution fit, at 75% and curve smoothing. […]
Concentration series of mPD5 ranging from 0.18 mg/mL to 9.37 mg/mL was prepared in buffer containing 50 mM Tris-HCl (pH 7.4) and 125 mM NaCl. Samples were measured at the P12 SAXS Beamline, PetraIII, DESY, Hamburg Germany (2). […]

Data set [2] can be described thus: Small-angle x-ray scattering (SAXS), core-shell micelle model. Format: physicochemical. Here is the method: Peripherally restricted PICK1 inhibitor mPD5 ameliorates pain behaviors in murine inflammatory and neuropathic pain models.
SUPPORTING INFORMATION: Supplemental Table 1+2.
Supplemental Table 1. SAXS data collection and fitting table.
Buffer 50 mM Tris, 125 mM NaCl, pH 7.4
Extinction coefficient 11 000 M-1 cm-1
Molecular weight 1874 g/mol
Peptide concentration 0.19 - 9.37 mg/ml
SAXS data collection details
Instrument P12, Petra III, DESY [1]
Absolute calibration Water
Indirect Fourier Bayersapp.org transformations to obtain
Data rebin WillItRebin [4] […]
nmolec-hydrophilic [Å3] 2012 nmolec-hydrophobic [Å3] 377
Rtotal [Å] 22.6 (corresponding to a hydrophilic shell thickness of Dshell=10.4 Å) […]
[1] C. E. Blanchet, A. Spilotros, F. Schwemmer, M. A. Graewert, A. Kikhney, C. M. Jeffries, D. Franke, D. Mark, R. Zengerle, F.
Cipriani, S. Fiedler, M. Roessle, D. I. Svergun, J Appl Crystallogr 2015, 48, 431.
[2] S. Hansen, Journal of Applied Crystallography 2012, 45, 566.
[3] S. Hansen, Journal of Applied Crystallography 2014, 47, 1469.
[4] WillItFit MC Pedersen 2013. […]
Small Angle X-ray Scattering (SAXS).
Concentration series of mPD5 ranging from […] to 9.37 mg/mL was prepared in buffer containing 50 mM Tris-HCl (pH 7.4) and 125 mM NaCl. Samples were measured at the P12 SAXS Beamline, PetraIII, DESY, Hamburg Germany (2). Initial data processing including radial averaging and conversion of the data into absolute scaled scattering intensity, I(q), as a function of the scattering vector q, where q= 4π sin(θ)/λ (θ = half scattering angle, λ = x-ray wave length) was done using the standard software, procedures and settings at the beamline (2). The processed scattering data was merged, buffer subtracted, and binned using WillItRebin with a binning factor of 1.02. The modelling of the SAXS data was performed using a molecular constrained core-shell model for polydisperse spherical micelles. In brief, it was assumed that the peptide aggregated into polydisperse spherical micelles. Here, the hydrophobic tails form the core, and these are surrounded by the hydrophilic part (the shell) in a spherical micelle. For the modelling, total scattering lengths of 2.26e-10 cm and 2.96e-11 cm were used for the headgroups and tail, respectively. These were calculated by multiplying the […]
electrons) by the scattering length of the electron which is just the classical electron radium of 2.82 fm. For the scattering length density calculations, it was assumed that the molecular volume of the C13 alkyl chain,nmolec-hydrophobic, was 377 Å3 as estimated by Tanfords empirical formula (V = 27.4 + 26.9n!) where nC denotes the number of carbons. i.e. 13 in this case (3).
The hydrophilic headgroup,nmolec-hydrophilic, was as a first estimate assumed to have a mass density corresponding to that of a soluble protein (i.e. 1.35 g/cm3), this yielded a molecular volume of 2078 Å3. This value was then taken as a free parameter in the fits and refined to a molecular volume of ~2010 Å3 corresponding to a mass density of 1.39 g/cm3 and with very little variation over the fits to the different sample concentrations. Excess scattering length densities of the core and shell of the micelle were then calculated in relation to the scattering length density of water (9.4e10 1/cm2). Using this molecular constrained model, the volumes of the core and of the shell were coupled internally through the fitted aggregation number, Nagg and the implicit […]
The relative polydispersity, srelative was described by a Gauss function of Nagg. The Gauss was truncated at ±3s. Through the fits, this value is refined to srelative values of the aggregation number at ~30% for the highest concentrations to up to 50% for the lowest concentrations. Note, however, that this variation in the particle volume translates to about 10%-15% variation of the particle radius. A full overview of the resulting fit-parameters is provided in Supplemental Table S1. As usual a small surface roughness (typical at the order of 2Å) and a small constant background were also […]

Where [3] appears, read: SAXS pair-distance distribution p(r).
[4] abbreviates: spherical core-shell model fit, average.

SMILES strings stand for the structures. Where “and” joins values, the source holds several entries; their conditions need not be identical. Identical values can stand only once.

As for `CCCCCCCCCCCCCC(=O)N(CCOCCOCCC(=O)N[C@@H](Cc1c[nH]cn1)C(=O)N[C@@H](Cc1c[nH]c2ccccc12)C(=O)N[C@@H](CC(C)C)C(=O)N[C@@H](CCCCN)C(=O)N[C@H](C(=O)O)C(C)C)CCOCCOCCC(=O)N[C@@H](Cc1c[nH]cn1)C(=O)N[C@@H](Cc1c[nH]c2ccccc12)C(=O)N[C@@H](CC(C)C)C(=O)N[C@@H](CCCCN)C(=O)N[C@H](C(=O)O)C(C)C` [mPD5, myristoyl-NPEG4-(HWLKV)2], in data set [1] (FIDA binding isotherm, optimal coatings combined), the “critical micelle concentration (CMC)” value came to 12 µM. For the same compound, the “hydrodynamic radius (RH)” value in data set [1] (FIDA, micellar mPD5) is reported as “≈ 30 Å”. Further, in data set [2] (setting [3]), the Dmax entry is “approximately 50 Å” and the “radius of gyration (Rg)” value was “approximately 30 Å”. Besides, the “Nagg, core shell model fit of single samples” value in data set [2] (five samples of the series 0.19 - 9.37 mg/ml, concentration of each column not given) is 18.7 and 21.5 and 22.2 and 21.0 and 19.0. For the same compound, in data set [2] (setting [4]), the “hydrophobic core radius (Rcore)” value is recorded as 12.2 Å, the “shell thickness (Dshell)” value came to 10.4 Å and the “total radius (Rtotal)” value worked out at 22.6 Å.

Values taken from paper PMC11530130, “Peripherally restricted PICK1 inhibitor mPD5 ameliorates pain behaviors in murine inflammatory and neuropathic pain models” (JCI Insight, 2024).
